Consider seven compounds from US7799753B2, “Bisubstrate inhibitors of protein tyrosine kinases as therapeutic agents” (Board of Governers for Higher Education, priority 2004, dated 2010).

In data set [1] the target is T1, Src (Homo sapiens, UniProt P12931). Put plainly: Steady-state kinetic radioactive assay with Src (polyE4Y, [γ-32P]ATP), ATP-phosphopeptide conjugates. In kind it is biochemical. The procedure: Steady-State Kinetic Assays.
Artificial substrate polyE4Y (average MW: 35 kD) was used for routine kinase activity. The kinase activity of PTKs was first determined using a standard radiometric PTK activity assay. This assay contains polyE4Y as the phosphate accepting substrate, [γ-^32P]-ATP, and MgCl2. After a reaction time of 30 min at 30° C., 35 μl of the reaction mixture was removed and spotted onto a filter paper and placed into warm 5% trichloroacetic acid (TCA). The TCA stops the kinase reaction, precipitates the proteins and polyE4Y onto the filter paper, and washes the un-reacted ATP and others away. After 3 TCA washes for 10 min each, the radioactivity remaining on the filter paper was determined by liquid scintillation counting. The assays were done in duplicates and repeated at least three times. Control reactions lacking polyE4Y were included for each enzyme concentration to correct for any non-polyE4Y specific phosphorylation. […] The inhibitory mechanism was determined based on the effect of the compound on the Km and Vm values Inhibitory constant (Ki) was determined by using Sigma Plot 8.0 Enzyme Kinetics Module.

For data set [2], the target named is T1, Src. Nature of the data set: Radioactive kinase assay, polyE4Y phosphorylation by Src (peptides, N-heteroaromatics and conjugates). In kind it is biochemical.
[3] abbreviates: read-out: IC50, inhibition of polyE4Y phosphorylation by Src.

Numbered stars: 1 amine (or outer) side, 2 acyl side, 3 side chain; on linkers, the order of the positions; unused ones are H or OH. Square brackets hold non-standard residues; d marks the D form. Peptide text beside a SMILES is read from it. * marks the point of attachment. X2 = CS(=O)(=O)Nc1ccc(C[C@H](N[*:1])C(=O)[*:2])cc1; Phe(4-NH2) = Nc1ccc(C[C@H](N)C(=O)O)cc1; X1 = Nc1ncnc2c1c(-c1ccccc1)nn2CC(=O)*

T1 sequence (P12931 whole entry, species assumed): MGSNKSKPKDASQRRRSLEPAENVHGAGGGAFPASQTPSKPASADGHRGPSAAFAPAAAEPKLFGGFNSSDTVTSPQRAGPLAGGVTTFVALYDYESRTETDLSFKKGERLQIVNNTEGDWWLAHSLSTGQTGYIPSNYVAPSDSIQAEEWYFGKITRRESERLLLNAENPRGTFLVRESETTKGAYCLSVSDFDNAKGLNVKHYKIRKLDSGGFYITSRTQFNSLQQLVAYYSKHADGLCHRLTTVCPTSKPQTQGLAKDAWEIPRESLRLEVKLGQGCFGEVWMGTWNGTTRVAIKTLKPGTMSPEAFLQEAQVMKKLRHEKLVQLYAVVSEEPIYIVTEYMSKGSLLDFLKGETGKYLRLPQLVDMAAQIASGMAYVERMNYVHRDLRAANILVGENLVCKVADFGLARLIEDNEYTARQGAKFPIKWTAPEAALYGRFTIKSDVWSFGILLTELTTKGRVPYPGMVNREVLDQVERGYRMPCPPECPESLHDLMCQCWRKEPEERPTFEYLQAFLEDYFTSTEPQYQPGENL

What is called IC50 is the concentration that gives 50% inhibition. On to `CC[C@H](C)[C@H](NC(=O)[C@H](CCC(=O)O)NC(=O)[C@H](CCC(=O)O)NC(=O)[C@H](Cc1ccc(OP(=O)(O)O)cc1)NC(=O)CCC(=O)NCCCOCCOCCOCCCNS(=O)(=O)c1ccc(C(=O)OC[C@H]2O[C@@H](n3cnc4c(N)ncnc43)[C@H](O)[C@@H]2O)cc1)C(=O)O` [Compound 9, 4-(sulfamoyl)benzoyladenosine-pYEEI], for which the IC50 in data set [1] is greater than 300 µM. The “enhancement of catalytic activity and phosphorylation” value in data set [1] (Src) is given as “at least 40%”.

What is called Ki is a dissociation constant, usually derived from enzyme kinetics or from competition with a known ligand. Turning to `CC[C@H](C)[C@H](NC(=O)[C@H](CCC(=O)O)NC(=O)[C@H](CCC(=O)O)NC(=O)[C@H](Cc1ccc(OP(=O)(O)O)cc1)NC(=O)CCC(=O)NCCCOCCOCCOCCCN)C(=O)O` [Compound 16, H2N-1,13-Trioxa-Suc-pTyr-Glu-Glu-Ile-OH], the Ki in data set [1] was found to be 608 µM.

Turning to `CC[C@H](C)[C@H](NC(=O)[C@H](Cc1ccc(O)cc1)NC(C)=O)C(=O)N[C@@H](Cc1ccc(O)cc1)C(=O)NCC(=O)N[C@@H](CO)C(=O)N[C@@H](Cc1ccccc1)C(=O)N[C@@H](CCCCN)C(=O)O` [Compound 41, Ac-YIYGSFK, reference compound] (Ac-YIYGSFK-OH; C-terminus assumed), in data set [2] (setting [3]), the IC50 amounted to 570 µM.

Take `CC[C@H](C)[C@H](NC(=O)[C@H](Cc1ccc(O)cc1)NC(=O)Cn1nc(-c2ccccc2)c2c(N)ncnc21)C(=O)N[C@@H](Cc1ccc(O)cc1)C(=O)NCC(=O)N[C@@H](CO)C(=O)N[C@@H](Cc1ccccc1)C(=O)N[C@@H](CCCCN)C(=O)O` [Compound 43] (X1-YIYGSFK-OH): the IC50 in data set [2] (setting [3]) was found to be 2.7 µM.

As to `CC[C@H](C)[C@H](NC(=O)[C@H](CS)NC(C)=O)C(=O)N[C@@H](Cc1ccc(O)cc1)C(=O)N[C@@H](CCCCN)C(=O)N[C@@H](Cc1ccc(O)cc1)C(=O)N[C@@H](Cc1ccc(N)cc1)C(=O)O` [Compound 68, Ac-CIYKYF(NH2)] (Ac-CIYKY[Phe(4-NH2)]-OH), the “Src inhibitory potency in words” value in data set [2] (qualitative, relative to parent or comparator named in the text) is on record as “not active”.

`CC[C@H](C)[C@H](NC(=O)[C@H](CS)NC(C)=O)C(=O)N[C@@H](Cc1ccc(O)cc1)C(=O)N[C@@H](CCCCN)C(=O)N[C@@H](Cc1ccc(NS(C)(=O)=O)cc1)C(=O)N[C@@H](Cc1ccc(O)cc1)C(=O)O` [Compound 80, Ac-CIYKF(4-NHSO2CH3)Y] (Ac-CIYK[X2]Y-OH): in data set [2], the IC50 was greater than 100 µM.

`CC[C@H](C)[C@H](NC(=O)[C@@H](N)Cc1ccc(O)cc1)C(=O)N[C@@H](Cc1ccc(O)cc1)C(=O)NCC(=O)N[C@@H](CO)C(=O)N[C@@H](Cc1ccccc1)C(=O)N[C@@H](CCCCN)C(=O)O` [Compound 85, YIYGSFK] (H-YIYGSFK-OH): in data set [2] (modified peptide analogs, read-out: IC50 (μM), Src kinase inhibitory potency (Table 1)), the IC50 was greater than 100 µM.
